Source: ChEMBL document CHEMBL1155490, “Aaptamine, an alkaloid from the sponge Aaptos suberitoides, functions as a proteasome inhibitor” (Bioorg Med Chem Lett, 2010)
≈ marks a conversion by molar mass, not a printed value.

Experiments:
HeLa = experiment: Cytotoxicity against human HeLa cells after 3 days by MTT assay; format: functional, cell-based; details: 72 h
[1] = Inhibition of caspase-like activity of 20S proteasome in human erythrocyte by spectrofluorimetry
[2] = Inhibition of chymotrypsin-like activity of purified 20S proteasome from human erythrocyte
[3] = Inhibition of chymotrypsin like activity of partially purified rat liver proteasome by spectrofluorimetry; format: subcellular
[4] = Inhibition of caspase like activity of partially purified rat liver proteasome by spectrofluorimetry; format: subcellular
[5] = Inhibition of trypsin like activity of partially purified rat liver proteasome by spectrofluorimetry; format: subcellular

| Compound | IC50 (HeLa) [µg/mL] | IC50 [1] [µg/mL] | IC50 [2] [µg/mL] | IC50 [3] [µg/mL] | IC50 [4] [µg/mL] | IC50 [5] [µg/mL] |
| --- | --- | --- | --- | --- | --- | --- |
| COc1cc2ccnc3c2c(c1OC)NC=C3 [AAPTAMINE] | 15 (≈ 65.7 µM) | 4.6 (≈ 20.2 µM) | 4.3 (≈ 18.8 µM) | 1.6 (≈ 7.01 µM) | 2.7 (≈ 11.8 µM) | 18 (≈ 78.9 µM) |
| COc1cc2ccnc3c2c(c1O)N(C)C=C3 [ISOAAPTAMINE] | 3.1 (≈ 13.6 µM) | 1.7 (≈ 7.45 µM) | 1.7 (≈ 7.45 µM) | 2.1 (≈ 9.2 µM) | 2.4 (≈ 10.5 µM) | 10 (≈ 43.8 µM) |
